Data taken from US11161850B2, “Fused pyrazine derivatives as A2A / A2B inhibitors” (Incyte Corporation, priority 2018, dated 2021).
Where two headings read alike, the source gives them in different places.

Legend:
[1] = target: human adenosine A2B receptor (Homo sapiens (Human), UniProt P29275); test: Adenosine A2B Receptor Cyclic AMP GS Assay; assay type: cell-based; conditions: HEK-293 cells expressing human A2B, agonist NECA 12 nM
Experimental: Example B. Adenosine A2B Receptor Cyclic AMP GS Assay
Stably transfected HEK-293 cells expressing the human adenosine A2B receptor (Perkin Elmer) were maintained in MEM culture medium with 10% FBS and 100 μg/mL Geneticin (Life Technologies). 18 to 24 hours prior to assay, geneticin was removed from culture. The cisbio cAMP-GS Dynamic kit utilizing the FRET (Fluorescence Resonance Energy Transfer) technology was used to measure cAMP accumulation in the cells. Compounds of the present disclosure at an appropriate concentration were mixed with 10000 cells/well in white 96 well half area plates (Perkin Elmer) for 30 min at room temperature gently shaking. Agonist, NECA (R&D Technologies) at 12 nM was added to each well for 60 min at room temperature gently shaking. Detection reagents, d2-labeled cAMP (acceptor) and anti-cAMP cryptate (donor) were added to each well for 60 min at rt gently shaking. Plates were read on Pherastar (BMG Labtech), fluorescence ratio 665/620 was calculated and EC50 determination was performed by fitting the curve of percent of control versus the log of the compound concentration using GraphPad Prism.

Adenosine A2A = Adenosine A2A (Homo sapiens (Human), UniProt P29274); test: A2A Tag-Lite HTRF assay; assay type: binding
Description: Example C. A2A Tag-Lite® HTRF Assay

[2] = Tag-Lite Adenosine A2A labeled cells, fluorescent ligand 12.5 nM, read-out: A2A_Ki
[3] = read-out: A2A_Ki, Tag-Lite Adenosine A2A labeled cells, fluorescent ligand 12.5 nM

Chain of human adenosine A2B receptor (P29275 whole entry): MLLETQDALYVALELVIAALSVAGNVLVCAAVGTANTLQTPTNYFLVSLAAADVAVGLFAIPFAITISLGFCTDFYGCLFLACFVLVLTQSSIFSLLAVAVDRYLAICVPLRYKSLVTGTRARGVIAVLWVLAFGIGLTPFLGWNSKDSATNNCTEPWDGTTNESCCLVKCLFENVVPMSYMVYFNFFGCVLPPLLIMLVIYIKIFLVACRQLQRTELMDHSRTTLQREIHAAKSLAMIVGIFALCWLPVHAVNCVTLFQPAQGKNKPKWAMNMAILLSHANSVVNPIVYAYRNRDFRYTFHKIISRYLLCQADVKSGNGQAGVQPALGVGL
Chain of Adenosine A2A (P29274 whole entry): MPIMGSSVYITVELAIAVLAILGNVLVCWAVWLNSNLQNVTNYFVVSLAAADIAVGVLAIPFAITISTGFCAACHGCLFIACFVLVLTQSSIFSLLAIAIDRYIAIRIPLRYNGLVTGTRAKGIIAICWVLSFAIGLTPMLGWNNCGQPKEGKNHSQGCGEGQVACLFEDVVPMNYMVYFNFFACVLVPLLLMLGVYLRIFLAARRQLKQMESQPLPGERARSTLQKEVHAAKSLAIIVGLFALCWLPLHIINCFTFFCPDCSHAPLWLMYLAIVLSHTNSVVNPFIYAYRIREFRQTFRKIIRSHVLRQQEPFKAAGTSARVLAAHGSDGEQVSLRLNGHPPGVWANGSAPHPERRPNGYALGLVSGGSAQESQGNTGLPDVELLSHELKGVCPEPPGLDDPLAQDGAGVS

Cc1cc(-c2c(-c3cccc(C#N)c3)nc(N)c3nc(C(O)c4c(F)cccc4F)nn23)cc(C)n1 (single isomer, unassigned) [Example 94, 3-(8-amino-2-((2,6-difluorophenyl)(hydroxy)methyl)-5-(2,6-dimethylpyridin-4-yl)-[1,2,4]triazolo[1,5-a]pyrazin-6-yl)benzonitrile]
EC50 ([1]; A2B_cAMP_EC50 (nM)): 10 to 100 nM | Ki (Adenosine A2A): < 0.01 µM

N#Cc1cccc(-c2nc(N)c3cc(C4=CCOCC4)nn3c2-c2ccncn2)c1 [Example 24, 3-(4-Amino-2-(3,6-dihydro-2H-pyran-4-yl)-7-(pyrimidin-4-yl)pyrazolo[1,5-a]pyrazin-6-yl)benzonitrile]
EC50 ([1]; A2B_cAMP_EC50 (nM)): 10 to 100 nM | Ki (Adenosine A2A; [2]): < 0.01 µM

N#Cc1cccc(-c2nc(N)c3cc(C(=O)N4CC(O)C4)nn3c2-c2ccncn2)c1 [Example 12, 3-(4-Amino-2-(3-hydroxyazetidine-1-carbonyl)-7-(pyrimidin-4-yl)pyrazolo[1,5-a]pyrazin-6-yl)benzonitrile]
EC50 ([1]; A2B_cAMP_EC50 (nM)): 10 to 100 nM | Ki (Adenosine A2A; [2]): < 0.01 µM

Cn1cc(-c2c(-c3cccc(C#N)c3)nc(N)c3nc(Cc4ccccn4)nn23)ccc1=O [Example 28, 3-(8-Amino-5-(1-methyl-6-oxo-1,6-dihydropyridin-3-yl)-2-(pyridin-2-ylmethyl)-[1,2,4]triazolo[1,5-a]pyrazin-6-yl)benzonitrile]
EC50 ([1]; A2B_cAMP_EC50 (nM)): 10 to 100 nM | Ki (Adenosine A2A; [2]): < 0.01 µM

Cc1nc(C(O)C(F)(F)F)c(-c2c(-c3cccc(C#N)c3F)nc(N)c3nc(Cc4ccccn4)nn23)o1 (stereo not shown) [Example 88, 3-(8-amino-5-(2-methyl-4-(2,2,2-trifluoro-1-hydroxyethyl)oxazol-5-yl)-2-(pyridin-2-ylmethyl)-[1,2,4]triazolo[1,5-a]pyrazin-6-yl)-2-fluorobenzonitrile]
EC50 ([1]; A2B_cAMP_EC50 (nM)): 10 to 100 nM | Ki (Adenosine A2A; [2]): < 0.01 µM

N#Cc1cccc(-c2nc(N)c3nc(C(O)c4cccc(F)c4F)nn3c2-c2ccncn2)c1 (single isomer, unassigned) [Example 53, 3-(8-Amino-2-((2,3-difluorophenyl)(hydroxy)methyl)-5-(pyrimidin-4-yl)-[1,2,4]triazolo[1,5-a]pyrazin-6-yl)benzonitrile]
EC50 ([1]; A2B_cAMP_EC50 (nM)): < 10 nM | Ki (Adenosine A2A): < 0.01 µM

N#Cc1cccc(-c2nc(N)c3nc(Cc4c(F)cccc4CN4CCN5C(=O)CCC5C4)nn3c2-c2ccncn2)c1 (stereo not shown) [Example 67, 3-(8-amino-2-(2-fluoro-6-((6-oxohexahydropyrrolo[1,2-a]pyrazin-2(1H)-yl)methyl)benzyl)-5-(pyrimidin-4-yl)-[1,2,4]triazolo[1,5-a]pyrazin-6-yl)benzonitrile]
EC50 ([1]; A2B_cAMP_EC50 (nM)): < 10 nM | Ki (Adenosine A2A; [2]): < 0.01 µM

CCNC(=O)c1cc2c(N)nc(-c3cccc(C#N)c3)c(C(C)(F)F)n2n1 [Example 5, 4-Amino-6-(3-cyanophenyl)-7-(1,1-difluoroethyl)-N-ethylpyrazolo[1,5-a]pyrazine-2-carboxamide]
EC50 ([1]; A2B_cAMP_EC50 (nM)): 100 to 1000 nM | Ki (Adenosine A2A; [2]): < 0.01 µM

N#Cc1cccc(-c2nc(N)c3nc(Cc4c(F)cccc4CN4CCNC(=O)C4)nn3c2-c2ccncn2)c1 [Example 70, 3-(8-amino-2-(2-fluoro-6-((3-oxopiperazin-1-yl)methyl)benzyl)-5-(pyrimidin-4-yl)-[1,2,4]triazolo[1,5-a]pyrazin-6-yl)benzonitrile]
EC50 ([1]; A2B_cAMP_EC50 (nM)): 10 to 100 nM | Ki (Adenosine A2A; [2]): < 0.01 µM

N#Cc1cccc(-c2nc(N)c3cc(C(=O)N4CCCCC4)nn3c2-c2ccncn2)c1 [Example 9, 3-(4-Amino-2-(piperidine-1-carbonyl)-7-(pyrimidin-4-yl)pyrazolo[1,5-a]pyrazin-6-yl)benzonitrile]
EC50 ([1]; A2B_cAMP_EC50 (nM)): 10 to 100 nM | Ki (Adenosine A2A; [2]): < 0.01 µM

Cc1ncoc1-c1c(-c2cccc(C#N)c2F)nc(N)c2nc(Cc3ccccn3)nn12 [Example 86, 3-(8-amino-5-(4-methyloxazol-5-yl)-2-(pyridin-2-ylmethyl)-[1,2,4]triazolo[1,5-a]pyrazin-6-yl)-2-fluorobenzonitrile]
EC50 ([1]; A2B_cAMP_EC50 (nM)): < 10 nM | Ki (Adenosine A2A; [2]): < 0.01 µM

N#Cc1cccc(-c2cn3nc(Cc4c(F)cccc4-c4cnn(CC(N)=O)c4)nc3c(N)n2)c1F [Example 115, 2-(4-(2-((8-amino-6-(3-cyano-2-fluorophenyl)-[1,2,4]triazolo[1,5-a]pyrazin-2-yl)methyl)-3-fluorophenyl)-1H-pyrazol-1-yl)acetamide]
EC50 ([1]; A2B_cAMP_EC50 (nM)): < 10 nM | Ki (Adenosine A2A; [2]): < 0.01 µM

CC(=O)N1CCC(Cc2cccc(F)c2Cc2nc3c(N)nc(-c4cccc(C#N)c4F)cn3n2)CC1 [Example 91, 3-(2-(2-((1-acetylpiperidin-4-yl)methyl)-6-fluorobenzyl)-8-amino-[1,2,4]triazolo[1,5-a]pyrazin-6-yl)-2-fluorobenzonitrile]
EC50 ([1]; A2B_cAMP_EC50 (nM)): 10 to 100 nM | Ki (Adenosine A2A; [2]): < 0.01 µM

N#Cc1cccc(-c2nc(N)c3nc(C(O)c4cc(F)ccc4F)nn3c2-c2ccncn2)c1 (single isomer, unassigned) [Example 52, 3-(8-Amino-2-((2,5-difluorophenyl)(hydroxy)methyl)-5-(pyrimidin-4-yl)-[1,2,4]triazolo[1,5-a]pyrazin-6-yl)benzonitrile]
EC50 ([1]; read-out: A2B_cAMP_EC50): < 10 nM | Ki (Adenosine A2A; [3]): < 0.01 µM

N#Cc1cccc(-c2nc(N)c3nc(Cc4ccccn4)nn3c2-c2ccncn2)c1 [Example 27, 3-(8-Amino-2-(pyridin-2-ylmethyl)-5-(pyrimidin-4-yl)-[1,2,4]triazolo[1,5-a]pyrazin-6-yl)benzonitrile]
EC50 ([1]; A2B_cAMP_EC50 (nM)): < 10 nM | Ki (Adenosine A2A; [2]): < 0.01 µM

N#Cc1cccc(-c2nc(N)c3nc(Cn4cc5ccccc5n4)nn3c2-c2ccncn2)c1 [Example 47, 3-(2-((2H-Indazol-2-yl)methyl)-8-amino-5-(pyrimidin-4-yl)-[1,2,4]triazolo[1,5-a]pyrazin-6-yl)benzonitrile]
EC50 ([1]; A2B_cAMP_EC50 (nM)): 10 to 100 nM | Ki (Adenosine A2A; [2]): < 0.01 µM

Cc1cc(-c2c(-c3cccc(C#N)c3)nc(N)c3nc(C(O)c4c(F)cccc4F)nn23)cc(C)n1 (single isomer, unassigned) [Example 95, 3-(8-amino-2-((2,6-difluorophenyl)(hydroxy)methyl)-5-(2,6-dimethylpyridin-4-yl)-[1,2,4]triazolo[1,5-a]pyrazin-6-yl)benzonitrile]
EC50 ([1]; read-out: A2B_cAMP_EC50): 10 to 100 nM | Ki (Adenosine A2A; [3]): < 0.01 µM

N#Cc1cccc(-c2nc(N)c3cc(C(O)c4ccccc4F)nn3c2-c2ccncn2)c1 (stereo not shown) [Example 38, 3-(4-Amino-2-((2-fluorophenyl)(hydroxy)methyl)-7-(pyrimidin-4-yl)pyrazolo[1,5-a]pyrazin-6-yl)benzonitrile]
EC50 ([1]; A2B_cAMP_EC50 (nM)): < 10 nM | Ki (Adenosine A2A; [2]): < 0.01 µM

N#Cc1cccc(-c2nc(N)c3nc(Cc4c(F)cccc4CN[C@H]4C[C@@H](C(=O)O)C4)nn3c2-c2ccncn2)c1 [Example 71, (1S,3S)-3-((2-((8-amino-6-(3-cyanophenyl)-5-(pyrimidin-4-yl)-[1,2,4]triazolo[1,5-a]pyrazin-2-yl)methyl)-3-fluorobenzyl)amino)cyclobutane-1-carboxylic Acid]
EC50 ([1]; A2B_cAMP_EC50 (nM)): < 10 nM | Ki (Adenosine A2A; [2]): < 0.01 µM

N#Cc1cccc(-c2nc(N)c3ncnn3c2-c2ccc3nccn3c2)c1 [Example 124, 3-(8-Amino-5-(imidazo[1,2-a]pyridin-6-yl)-[1,2,4]triazolo[1,5-a]pyrazin-6-yl)benzonitrile]
EC50 ([1]; A2B_cAMP_EC50 (nM)): < 10 nM | Ki (Adenosine A2A; [2]): < 0.01 µM

Cn1cc(Cn2cc(-c3cccc(F)c3Cc3nc4c(N)nc(-c5cccc(C#N)c5F)cn4n3)cn2)cn1 [Example 99, 3-(8-amino-2-(2-fluoro-6-(1-((1-methyl-1H-pyrazol-4-yl)methyl)-1H-pyrazol-4-yl)benzyl)-[1,2,4]triazolo[1,5-a]pyrazin-6-yl)-2-fluorobenzonitrile]
EC50 ([1]; A2B_cAMP_EC50 (nM)): 10 to 100 nM | Ki (Adenosine A2A; [2]): < 0.01 µM

CS(=O)(=O)CCn1cc(-c2cccc(F)c2Cc2nc3c(N)nc(-c4cccc(C#N)c4F)cn3n2)cn1 [Example 112, 3-(8-amino-2-(2-fluoro-6-(1-(2-(methylsulfonyl)ethyl)-1H-pyrazol-4-yl)benzyl)-[1,2,4]triazolo[1,5-a]pyrazin-6-yl)-2-fluorobenzonitrile]
EC50 ([1]; A2B_cAMP_EC50 (nM)): < 10 nM | Ki (Adenosine A2A; [2]): < 0.01 µM

N#Cc1cccc(-c2nc(N)c3cc(Cc4ccccc4F)nn3c2C2=CCN(C(N)=O)CC2)c1 [Example 19, 4-(4-Amino-6-(3-cyanophenyl)-2-(2-fluorobenzyl)pyrazolo[1,5-a]pyrazin-7-yl)-5,6-dihydropyridine-1(2H)-carboxamide]
EC50 ([1]; A2B_cAMP_EC50 (nM)): 10 to 100 nM | Ki (Adenosine A2A; [2]): < 0.01 µM

CCn1nccc1-c1c(-c2cccc(C#N)c2)nc(N)c2cc(Cc3ccccn3)nn12 [Example 18, 3-(4-Amino-7-(1-ethyl-1H-pyrazol-5-yl)-2-(pyridin-2-ylmethyl)pyrazolo[1,5-a]pyrazin-6-yl)benzonitrile]
EC50 ([1]; A2B_cAMP_EC50 (nM)): < 10 nM | Ki (Adenosine A2A; [2]): < 0.01 µM

CN1CCC2(CN(Cc3cccc(F)c3Cc3nc4c(N)nc(-c5cccc(C#N)c5F)cn4n3)C2)C1=O [Example 85, 3-(8-amino-2-(2-fluoro-6-((6-methyl-5-oxo-2,6-diazaspiro[3.4]octan-2-yl)methyl)benzyl)-[1,2,4]triazolo[1,5-a]pyrazin-6-yl)-2-fluorobenzonitrile]
EC50 ([1]; A2B_cAMP_EC50 (nM)): 10 to 100 nM | Ki (Adenosine A2A; [2]): < 0.01 µM

N#Cc1cccc(-c2nc(N)c3nc(Cc4ncccc4-c4cnco4)nn3c2-c2ccncn2)c1 [Example 82, 3-(8-amino-2-((3-(oxazol-5-yl)pyridin-2-yl)methyl)-5-(pyrimidin-4-yl)-[1,2,4]triazolo[1,5-a]pyrazin-6-yl)benzonitrile]
EC50 ([1]; A2B_cAMP_EC50 (nM)): < 10 nM | Ki (Adenosine A2A; [2]): < 0.01 µM
